pEC50: −log10 of the molar value. Residues, ends and D or L forms follow the SMILES beside them. A value given as a limit tells only on which side of the number the result lay.

What all share (assay type): cell-based
Experiment [1] addresses T1, BB3 (Homo sapiens, UniProt P32247).
T1 construct: hIL-2Ra signal peptide (N); expressed in transfected cells
T1 sequence (P32247 2-399 limits assumed): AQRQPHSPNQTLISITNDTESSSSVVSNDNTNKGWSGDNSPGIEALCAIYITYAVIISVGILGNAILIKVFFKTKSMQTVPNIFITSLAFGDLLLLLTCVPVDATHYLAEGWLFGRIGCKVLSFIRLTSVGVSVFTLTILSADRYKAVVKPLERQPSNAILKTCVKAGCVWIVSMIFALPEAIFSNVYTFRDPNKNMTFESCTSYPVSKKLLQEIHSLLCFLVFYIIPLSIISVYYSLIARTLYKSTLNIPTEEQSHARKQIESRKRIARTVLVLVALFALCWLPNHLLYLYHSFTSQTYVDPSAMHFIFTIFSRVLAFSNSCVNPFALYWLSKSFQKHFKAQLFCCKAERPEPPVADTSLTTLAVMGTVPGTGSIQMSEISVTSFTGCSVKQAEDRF
Description: Dynamic mass redistribution (DMR), concentration-response. The following applies: mean, SEM and n (3); for pEC50: DMR assays pEC50, receptor BB3; for EC50: receptor BB3, read-out: DMR assays pEC50 (converted).

Experiment [2] has as its target T1, BB3. Description: Real-time receptor internalization (TR-FRET), concentration-response.
Experiment [3] concerns the target T1, BB3. Briefly: IP1 accumulation (Gq/11), HTRF. The following applies: mean, SEM and n (2-4); for pEC50: IP1 accumulation assays pEC50, receptor BB3; for EC50: read-out: IP1 accumulation assays pEC50 (converted).
For a further experiment, the target named is GPR55 (Homo sapiens, UniProt Q9Y2T6). Briefly: Real-time receptor internalization (TR-FRET), concentration-response. Details: hIL-2Ra signal peptide (N); expressed in transfected cells. The following applies: receptor GPR55; mean, SEM and n (3-4); read-out: Internalization assays pEC50 (converted). The procedure: 48 hr prior to parallel assaying, SNAP-tagged oGPCR cells were plated (10,000 cells/well) in fibronectin-coated 384-well Epic biosensor microplates (Corning) and poly-D-lysine coated white 384-well plates (for internalization assays). SNAP- GLP-1 receptor was plated alongside orphan receptor cells as an internal assay control for internalization assays. Receptor-expression was induced with 0.1 μg/ml doxycycline.
A TR-FRET real-time internalization assay was used to examine peptide-dependent changes in orphan receptor localization as described previously ([Foster and Bräuner-Osborne, 2018]). Surface-expressed SNAP-tagged receptors were labeled with a cell-impermeable luminescent terbium cryptate (100 nM SNAP Lumi4-Tb; Cisbio, France) for 1 hr at 37°C. Cells were washed to remove excess terbium and incubated with fluorescein-O-acetic acid (100 μM; Sigma Aldrich) for 5 min at 37°C. Peptides were added as for DMR assays, and internalization responses were recorded for 60 min at 37°C using an EnVision 2104 Multimode plate reader (PerkinElmer). 100 nM GLP-1 was used as a positive control for SNAP-GLP1R internalization. Real-time internalization responses were calculated based on TR-FRET (excitation 340 nm; emission 520 nm and 615 nm), and were expressed as the ratio between donor (terbium) and acceptor (fluorescein) emission. For peptide screening analysis (both DMR and internalization assays), we calculated the area under the curve from the real-time traces. […] Validation experiments for receptor internalization were performed as above. Internalization data was processed in MS-Excel and area under the curve was used to generate concentration-response curves using GraphPad Prism 7.0. Data represent mean ± standard error of the mean (SEM) from at least 3 biologically independent experiments.
In general terms: Time-resolved FRET reads energy transfer from a long-lived donor to a nearby acceptor.

The mark [4] stands for this setting: receptor BB3, mean, SEM and n (3), read-out: Internalization assays pEC50 (converted).

Sequence of GPR55 (Q9Y2T6 2-319 limits assumed): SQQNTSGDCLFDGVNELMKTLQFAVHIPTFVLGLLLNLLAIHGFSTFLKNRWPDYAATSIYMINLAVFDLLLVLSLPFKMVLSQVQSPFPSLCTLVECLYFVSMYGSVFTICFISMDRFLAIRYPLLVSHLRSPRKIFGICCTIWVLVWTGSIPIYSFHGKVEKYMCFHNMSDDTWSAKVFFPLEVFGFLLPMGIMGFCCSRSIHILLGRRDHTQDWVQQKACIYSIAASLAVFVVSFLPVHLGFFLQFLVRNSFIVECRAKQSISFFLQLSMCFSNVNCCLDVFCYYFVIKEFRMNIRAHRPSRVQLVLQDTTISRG

For `CSCC[C@H](NC(=O)[C@H](Cc1ccccc1)NC(=O)[C@H](Cc1cnc[nH]1)NC(=O)CNC(=O)[C@@H](NC(=O)[C@H](C)NC(=O)[C@H](Cc1c[nH]c2ccccc12)NC(=O)[C@H](CC(C)C)NC(=O)[C@H](CC(N)=O)NC(=O)CN)[C@@H](C)O)C(N)=O` [59 resynthesized], the negative-log EC50 (pEC50) (in general, −log10 of the EC50, conventionally taken in molar units) is 7.56 on BB3 [1] and 6.28 at BB3 [3]. Also, the EC50 on BB3 [2] (setting [4]) was 1550 nM.

As to `CC[C@H](C)[C@H](NC(=O)[C@H](CCCCN)NC(=O)[C@H](CO)NC(=O)[C@H](C)NC(=O)[C@H](CCCNC(=N)N)NC(=O)[C@H](CO)NC(=O)[C@H](CCCNC(=N)N)NC(=O)[C@@H]1CCCN1C(=O)[C@H](CCC(=O)O)NC(=O)[C@@H]1CCCN1C(=O)[C@H](CC(C)C)NC(=O)[C@H](CC(=O)O)NC(=O)[C@H](Cc1c[nH]c2ccccc12)NC(=O)[C@H](CO)NC(=O)[C@H](CC(C)C)NC(=O)[C@@H]1CCCN1C(=O)[C@H](C)N)C(=O)N[C@@H](CCCNC(=N)N)C(=O)N[C@H](C(=O)N[C@@H](Cc1c[nH]cn1)C(=O)N[C@@H](CO)C(=O)N[C@@H](CCCNC(=N)N)C(=O)NCC(=O)N[C@@H](CC(N)=O)C(=O)N[C@@H](CC(C)C)C(=O)N[C@@H](Cc1c[nH]c2ccccc12)C(=O)N[C@@H](C)C(=O)N[C@H](C(=O)NCC(=O)N[C@@H](Cc1c[nH]cn1)C(=O)N[C@@H](Cc1ccccc1)C(=O)N[C@@H](CCSC)C(N)=O)[C@@H](C)O)C(C)C` [59.1 (Phoenix)] (H-APLSWDLPEPRSRASKIRVHSRGNLWATGHFM-NH2), the results for the EC50 at BB3 [1], on BB3 [2] (setting [4]) and at BB3 [3] (receptor BB3) were 49 nM, 646 nM and 224 nM, respectively.

Consider `CC(C)C[C@H](NC(=O)[C@H](CCCCN)NC(=O)[C@H](CCC(N)=O)NC(=O)[C@@H](NC(=O)[C@H](CCCCN)NC(=O)[C@H](CO)NC(=O)[C@H](Cc1ccc(O)cc1)NC(=O)[C@H](Cc1c[nH]cn1)NC(=O)[C@H](Cc1ccccc1)NC(=O)[C@H](CC(C)C)NC(=O)[C@@H](N)Cc1ccccc1)[C@@H](C)O)C(N)=O` [67 resynthesized] (H-FLFHYSKTQKL-NH2), for which the EC50 on BB3 [1] is 2690 nM; at BB3 [2] (setting [4]), 34700 nM; on BB3 [3] (receptor BB3), 1660 nM. For `CSCC[C@H](NC(=O)[C@H](Cc1ccccc1)NC(=O)CNC(=O)CNC(=O)[C@@H](N)Cc1ccc(O)cc1)C(=O)O` [158.1 (Phoenix)], the results for the pEC50 at BB3 [1] and on BB3 [3] were 7.19 and 7.90, respectively.

For `CC(C)C[C@H](NC(=O)[C@H](CCCCN)NC(=O)[C@H](CCC(N)=O)NC(=O)[C@@H](NC(=O)[C@H](CCCCN)NC(=O)[C@H](CO)NC(=O)[C@H](Cc1ccc(O)cc1)NC(=O)[C@H](Cc1c[nH]cn1)NC(=O)[C@H](Cc1ccccc1)NC(=O)[C@H](CC(C)C)NC(=O)[C@@H](N)Cc1ccccc1)[C@@H](C)O)C(=O)NCC(=O)N[C@@H](CCCCN)C(=O)N[C@@H](CO)C(=O)N[C@@H](CC(N)=O)C(=O)N[C@H](C(=O)N[C@H](C(=O)N[C@@H](CO)C(=O)N[C@@H](CO)C(=O)N[C@H](C(=O)N[C@H](C(=O)N[C@@H](Cc1c[nH]cn1)C(=O)N1CCC[C@H]1C(=O)N[C@@H](CC(C)C)C(=O)N[C@@H](CC(C)C)C(=O)N[C@@H](CCC(N)=O)C(=O)N[C@@H](CC(C)C)C(=O)N[C@H](C(=O)N1CCC[C@H]1C(=O)N[C@@H](Cc1c[nH]cn1)C(=O)N[C@@H](CC(C)C)C(=O)N[C@@H](Cc1c[nH]cn1)C(=O)N[C@@H](CCC(=O)O)C(=O)O)C(C)C)C(C)C)C(C)C)C(C)C)C(C)C` [Peptide 67.1] (H-FLFHYSKTQKLGKSNVVSSVVHPLLQLVPHLHE-OH), the values for the EC50 at BB3 [1] and at BB3 [3] (receptor BB3) were 32400 nM and 4270 nM, respectively.

As to `CSCC[C@H](NC(=O)[C@H](CCCNC(=N)N)NC(=O)[C@H](CCCNC(=N)N)NC(=O)[C@H](CCC(=O)O)NC(=O)[C@H](Cc1c[nH]cn1)NC(=O)[C@H](CC(C)C)NC(=O)[C@H](Cc1c[nH]cn1)NC(=O)[C@@H]1CCCN1C(=O)[C@@H](NC(=O)[C@H](CC(C)C)NC(=O)[C@H](CCC(N)=O)NC(=O)[C@H](CC(C)C)NC(=O)[C@H](CC(C)C)NC(=O)[C@@H]1CCCN1C(=O)[C@H](Cc1c[nH]cn1)NC(=O)[C@@H](NC(=O)[C@@H](NC(=O)[C@H](CO)NC(=O)[C@H](CO)NC(=O)[C@@H](NC(=O)[C@@H](NC(=O)[C@H](CC(N)=O)NC(=O)[C@H](CO)NC(=O)[C@H](CCCCN)NC(=O)CNC(=O)[C@H](CC(C)C)NC(=O)[C@H](CCCCN)NC(=O)[C@H](CCC(N)=O)NC(=O)[C@@H](NC(=O)[C@H](CCCCN)NC(=O)[C@H](CO)NC(=O)[C@H](Cc1ccc(O)cc1)NC(=O)[C@H](Cc1c[nH]cn1)NC(=O)[C@H](Cc1ccccc1)NC(=O)[C@H](CC(C)C)NC(=O)[C@@H](N)Cc1ccccc1)[C@@H](C)O)C(C)C)C(C)C)C(C)C)C(C)C)C(C)C)C(=O)O` [Peptide 67.2] (H-FLFHYSKTQKLGKSNVVSSVVHPLLQLVPHLHERRM-OH), the EC50 at BB3 [1] is 38000 nM; at BB3 [3] (receptor BB3), 1170 nM.

In the case of `CC(C)C[C@H](NC(=O)[C@H](CCCCN)NC(=O)[C@H](CCC(N)=O)NC(=O)[C@@H](NC(=O)[C@H](CCCCN)NC(=O)[C@H](CO)NC(=O)[C@H](Cc1ccc(O)cc1)NC(=O)[C@H](Cc1c[nH]cn1)NC(=O)[C@H](Cc1ccccc1)NC(=O)[C@H](CC(C)C)NC(=O)[C@@H](N)Cc1ccccc1)[C@@H](C)O)C(N)=O` [Peptide 67] (H-FLFHYSKTQKL-NH2; N-terminus assumed), the EC50 on BB3 [2] (SNAP-tagged BB3 in Flp-In T-REx 293 cells, TR-FRET 60 min, 37°C, AUC, mean ± SEM of 3-4 independent experiments in triplicate, read-out: pEC50, internalization, BB3 (converted)) is > 10000 nM. `CSCC[C@H](NC(=O)[C@H](Cc1ccccc1)NC(=O)CNC(=O)CNC(=O)[C@@H](N)Cc1ccc(O)cc1)C(=O)N[C@@H](CCCNC(=N)N)C(=O)N[C@@H](CCCNC(=N)N)C(=O)N[C@H](C(N)=O)C(C)C` [Peptide 158.3]: the pEC50 was 4.81 on BB3 [1] and 7.05 at BB3 [3]. Consider `CSCC[C@H](NC(=O)[C@H](Cc1ccccc1)NC(=O)CNC(=O)CNC(=O)[C@@H](N)Cc1ccc(O)cc1)C(=O)N[C@@H](CCCNC(=N)N)C(=O)N[C@@H](CCCNC(=N)N)C(=O)N[C@H](C(=O)NCC(=O)N[C@@H](CCCNC(=N)N)C(=O)N1CCC[C@H]1C(=O)N[C@@H](CCC(=O)O)C(=O)N[C@@H](Cc1c[nH]c2ccccc12)C(=O)N[C@@H](Cc1c[nH]c2ccccc12)C(=O)N[C@@H](CCSC)C(=O)N[C@@H](CC(=O)O)C(=O)N[C@@H](Cc1ccc(O)cc1)C(=O)N[C@@H](CCC(N)=O)C(=O)O)C(C)C` [Peptide 158.5] (H-YGGFMRRVGRPEWWMDYQ-OH), for which the pEC50 at BB3 [1] is 4.16; on BB3 [3] it was 7.00. Regarding `CC(C)C[C@H](NC(=O)[C@@H](NC(=O)[C@H](C)NC(=O)[C@H](C)NC(=O)[C@H](CC(C)C)NC(=O)[C@@H](N)Cc1ccc(O)cc1)C(C)C)C(N)=O` [Peptide 168.2] (H-YLAAVL-NH2), the EC50 at GPR55 is 20400 nM. On the same count and under the same terms, with `CSCC[C@H](NC(=O)[C@@H](N)CCC(N)=O)C(=O)N[C@@H](C)C(=O)N[C@H](C(=O)N[C@@H](CCCCN)C(=O)N[C@@H](CCCCN)C(=O)N[C@@H](Cc1ccc(O)cc1)C(=O)N[C@@H](CC(C)C)C(=O)N[C@@H](C)C(=O)N[C@@H](C)C(=O)N[C@H](C(=O)N[C@@H](CC(C)C)C(N)=O)C(C)C)C(C)C` [Peptide 168.3] the figure was 0.219 nM; with `CC[C@H](C)[C@H](NC(=O)CNC(=O)[C@H](CC(=O)O)NC(=O)[C@H](CO)NC(=O)[C@@H](N)Cc1c[nH]cn1)C(=O)N[C@@H](Cc1ccccc1)C(=O)N[C@H](C(=O)N[C@@H](CC(=O)O)C(=O)N[C@@H](CO)C(=O)N[C@@H](Cc1ccc(O)cc1)C(=O)N[C@@H](CO)C(=O)N[C@@H](CCCNC(=N)N)C(=O)N[C@@H](Cc1ccc(O)cc1)C(=O)O)[C@@H](C)O` [Peptide 168.4] (H-HSDGIFTDSYSRY-OH), 316 nM. Regarding “YGGFMRRVGRPEWWMDYQKRYGGFL [158 original]”, the “Internalization assays Emax (AUC)” value at BB3 [2] (receptor BB3, mean, SEM and n (3)) is recorded as 16.0. Further, at BB3 [3] (receptor BB3), the “IP1 accumulation assays Emax” value was 164.0 nM.

(Values after article PMC6838683, “Discovery of Human Signaling Systems: Pairing Peptides to G Protein-Coupled Receptors” (Cell, 2019).)
